Experiments:
Experiment in all cases: relative viability (nuclei count vs DMSO), 5 days (fraction); higher = more cells survive
Linifanib + Dasatinib = compound: Cc1ccc(F)c(NC(=O)Nc2ccc(-c3cccc4[nH]nc(N)c34)cc2)c1 [Linifanib] + Cc1nc(Nc2ncc(C(=O)Nc3c(C)cccc3Cl)s2)cc(N2CCN(CCO)CC2)n1 [Dasatinib] (partner 0.075 µM)
Summary of the method: (§1)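 One day after seeding in 1536-well plates, lung cancer cell lines were dosed by pin tool. Dosing was either single-drug or a fixed anchor-drug dose plus five library-drug doses (not always all listed) in √10 steps. After 5 days, nuclei were stained in one fix-and-stain step and counted on 4× images, and relative viability is the nuclei count of treated wells over that of vehicle wells, given as the median of duplicate plates.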

Linifanib + Trametinib = compound: Cc1ccc(F)c(NC(=O)Nc2ccc(-c3cccc4[nH]nc(N)c34)cc2)c1 [Linifanib] + CC(=O)Nc1cccc(-n2c(=O)n(C3CC3)c(=O)c3c(Nc4ccc(I)cc4F)n(C)c(=O)c(C)c32)c1 [Trametinib] (partner 0.02 µM)
Summary of the method: as §1

Linifanib + Palbociclib = compound: Cc1ccc(F)c(NC(=O)Nc2ccc(-c3cccc4[nH]nc(N)c34)cc2)c1 [Linifanib] + CC(=O)c1c(C)c2cnc(Nc3ccc(N4CCNCC4)cn3)nc2n(C2CCCC2)c1=O [Palbociclib] (partner 0.5 µM)
Summary of the method: as §1

Linifanib + Pictilisib = compound: Cc1ccc(F)c(NC(=O)Nc2ccc(-c3cccc4[nH]nc(N)c34)cc2)c1 [Linifanib] + CS(=O)(=O)N1CCN(Cc2cc3nc(-c4cccc5[nH]ncc45)nc(N4CCOCC4)c3s2)CC1 [Pictilisib] (partner 1 µM)
Summary of the method: as §1

Linifanib + Alpelisib = compound: Cc1ccc(F)c(NC(=O)Nc2ccc(-c3cccc4[nH]nc(N)c34)cc2)c1 [Linifanib] + Cc1nc(NC(=O)N2CCC[C@H]2C(N)=O)sc1-c1ccnc(C(C)(C)C(F)(F)F)c1 [Alpelisib] (partner 2 µM)
Summary of the method: as §1

Linifanib + Lapatinib = compound: Cc1ccc(F)c(NC(=O)Nc2ccc(-c3cccc4[nH]nc(N)c34)cc2)c1 [Linifanib] + CS(=O)(=O)CCNCc1ccc(-c2ccc3ncnc(Nc4ccc(OCc5cccc(F)c5)c(Cl)c4)c3c2)o1 [Lapatinib] (partner 2 µM)
Summary of the method: as §1

Row | Cell Line | relative viability (Linifanib + Dasatinib; first compound 0.03162 µM) | relative viability (Linifanib + Dasatinib; first compound 0.1 µM) | relative viability (Linifanib + Dasatinib; first compound 0.3162 µM) | relative viability (Linifanib + Trametinib; first compound 0.03162 µM) | relative viability (Linifanib + Trametinib; first compound 0.1 µM) | relative viability (Linifanib + Trametinib; first compound 0.3162 µM) | relative viability (Linifanib + Palbociclib; first compound 0.03162 µM) | relative viability (Linifanib + Palbociclib; first compound 0.1 µM) | relative viability (Linifanib + Palbociclib; first compound 0.3162 µM) | relative viability (Linifanib + Pictilisib; first compound 0.03162 µM) | relative viability (Linifanib + Pictilisib; first compound 0.1 µM) | relative viability (Linifanib + Pictilisib; first compound 0.3162 µM) | relative viability (Linifanib + Alpelisib; first compound 0.03162 µM) | relative viability (Linifanib + Alpelisib; first compound 0.1 µM) | relative viability (Linifanib + Alpelisib; first compound 0.3162 µM) | relative viability (Linifanib + Lapatinib; first compound 0.03162 µM) | relative viability (Linifanib + Lapatinib; first compound 0.1 µM) | relative viability (Linifanib + Lapatinib; first compound 0.3162 µM)
1 | SW 900 | 0.824 | 0.548 | 0.578 | 0.76 | 0.83 | 0.912 | 0.551 | 0.603 | 0.514 | – | – | – | – | – | – | – | – | –
2 | COR-L23 | 0.532 | 0.647 | 0.418 | 0.666 | 0.689 | 0.578 | 0.31 | 0.298 | 0.273 | 0.754 | 0.717 | 0.686 | 0.81 | 0.957 | 0.732 | 1.09 | 0.905 | 0.921
3 | NCI-H1915 | 0.301 | 0.359 | 0.36 | 0.279 | 0.339 | 0.297 | 0.541 | 0.548 | 0.507 | 1.04 | 0.923 | 0.892 | 1.08 | 1.08 | 1.06 | 1.08 | 0.925 | 0.89
4 | NCI-H1437 | 0.375 | 0.407 | 0.378 | 0.559 | 0.618 | 0.45 | 0.344 | 0.331 | 0.311 | 0.529 | 0.495 | 0.471 | 1.02 | 0.999 | 0.868 | 0.957 | 0.801 | 0.77
5 | CAL-12T | 0.457 | 0.508 | 0.343 | 0.338 | 0.463 | 0.357 | 0.485 | 0.446 | 0.419 | 0.439 | 0.478 | 0.33 | 1.27 | 1.3 | 1.28 | 0.75 | 0.819 | 0.534
6 | NCI-H1651 | 0.499 | 0.393 | 0.398 | 0.896 | 0.787 | 0.787 | 0.536 | 0.527 | 0.487 | 0.591 | 0.582 | 0.355 | 0.883 | 0.838 | 0.996 | 0.981 | 0.88 | 0.817
7 | NCI-H1792 | 0.622 | 0.774 | 0.819 | 0.389 | 0.459 | 0.439 | 0.611 | 0.666 | 0.621 | 0.213 | 0.311 | 0.333 | 0.631 | 0.738 | 0.776 | 0.961 | 0.973 | 0.891
8 | COR-L 105 | 0.416 | 0.361 | 0.322 | 0.444 | 0.451 | 0.45 | 0.424 | 0.405 | 0.401 | 0.422 | 0.437 | 0.388 | 1 | 1.02 | 1.01 | 0.388 | 0.381 | 0.333
9 | NCI-H596 | 0.58 | 0.612 | 0.671 | 0.813 | 0.894 | 0.749 | – | – | – | 0.378 | 0.375 | 0.446 | 0.544 | 0.517 | 0.431 | 1.05 | 1.08 | 1.01
